Data from ChEMBL document CHEMBL4825704, “Withanolide Derivative 2,3-Dihydro-3β-methoxy Withaferin-A Modulates the Circadian Clock via Interaction with RAR-Related Orphan Receptor α (RORa)” (J Nat Prod, 2021).
Each block holds one molecule with its values, some of them ahead of it. Calls of active or inactive are those of the source. The calls are words filed in the database; no cut-off is given here.

Key:
MEF [1] = assay: (§1) Elongation of circadian rhythms in dexamethasone-induced mouse embryonic fibroblasts expressing PER2-luc gene assessed as increase in PER2 period time at 1.67 uM measured for 1 mins at 10 min interval up to 96 hrs by bioluminescence based PER2 promoter-reporter gene assay (reference value: 23.17 +/- 0.10 hrs); assay type: functional; conditions: time hrs <=96
NIH3T3 [2] = assay: Transcriptional upregulation of Bmal1 mRNA expression in dexamethasone-induced mouse NIH3T3 cells at 5 uM measured after 24 hrs by RT-qPCR analysis relative to control; assay type: functional
NIH3T3 [3] = assay: Transcriptional upregulation of […] mRNA expression in dexamethasone-induced mouse NIH3T3 cells at 5 uM measured after 24 hrs by qPCR analysis relative to control; assay type: functional
NIH3T3 [4] = assay: Transcriptional upregulation of Bmal1 mRNA expression in dexamethasone-induced mouse NIH3T3 cells at 1 uM measured after 24 hrs by RT-qPCR analysis relative to control; assay type: functional
[5] = target: T1, Nuclear receptor ROR-alpha (Mus musculus, UniProt P51448); assay: Inverse agonist activity at RORalpha in mouse NIH3T3 cells incubated for 24 hrs by luminescence based assay; assay type: cell-based
T1 sequence (P51448 whole entry): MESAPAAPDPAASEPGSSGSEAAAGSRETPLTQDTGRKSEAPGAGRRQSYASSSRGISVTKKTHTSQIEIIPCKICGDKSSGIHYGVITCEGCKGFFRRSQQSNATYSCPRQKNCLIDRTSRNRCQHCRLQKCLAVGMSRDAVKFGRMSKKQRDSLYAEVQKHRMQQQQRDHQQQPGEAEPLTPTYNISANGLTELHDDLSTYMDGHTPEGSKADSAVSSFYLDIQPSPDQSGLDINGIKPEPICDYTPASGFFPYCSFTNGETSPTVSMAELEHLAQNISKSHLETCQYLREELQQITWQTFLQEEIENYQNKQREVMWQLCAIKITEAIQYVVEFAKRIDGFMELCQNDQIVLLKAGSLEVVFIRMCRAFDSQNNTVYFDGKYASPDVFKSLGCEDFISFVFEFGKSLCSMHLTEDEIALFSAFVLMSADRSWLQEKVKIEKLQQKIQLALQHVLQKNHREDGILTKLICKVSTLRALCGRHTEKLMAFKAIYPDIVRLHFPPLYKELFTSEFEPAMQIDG

NIH3T3 [6] = assay: Elongation of circadian rhythms in dexamethasone-induced mouse NIH3T3 cells assessed as increase in Bmal1 period time at 5 uM measured for 1 mins at 10 min interval up to 96 hrs by dual luciferase reporter gene assay (reference value: 25.02 +/- 0.15 hrs); assay type: functional; conditions: time hrs <=96
Sarcoma-180 [7] = assay: Elongation of circadian rhythms in dexamethasone-induced mouse Sarcoma-180 cells assessed as increase in Bmal1 period length at 1 to 5 uM measured for 1 mins at 10 min interval up to 96 hrs by bioluminescence based Bmal1 promoter-reporter gene assay; assay type: functional, cell-based; conditions: dose 1-5 µM, time hrs <=96
Sarcoma-180 [8] = assay: Transcriptional upregulation of Bmal1 mRNA expression in dexamethasone-induced mouse Sarcoma-180 cells at 1 uM measured after 24 hrs by RT-qPCR analysis relative to control; assay type: functional
Sarcoma-180 [9] = assay: Cytotoxicity against mouse Sarcoma-180 cells assessed as reduction in cell proliferation at 1 uM measured up to 5 days by WST-8 assay; assay type: functional, cell-based; conditions: time day <=5
NIH3T3 [10] = assay: Transcriptional upregulation of Rora mRNA expression in dexamethasone-induced mouse NIH3T3 cells at 5 uM measured after 24 hrs by qPCR analysis relative to control; assay type: functional
Sarcoma-180 [11] = assay: Elongation of circadian rhythms in dexamethasone-induced mouse Sarcoma-180 cells assessed as increase in Bmal1 period time at 5 uM measured for 1 mins at 10 min interval up to 96 hrs by bioluminescence based Bmal1 promoter-reporter gene assay (reference value: 25.70 +/- 0.30 hrs); assay type: functional; conditions: time hrs <=96
Sarcoma-180 [12] = assay: Cytotoxicity against mouse Sarcoma-180 cells assessed as reduction in cell proliferation by measuring growth rate at 1 uM measured after 3 days by WST-8 assay relative to control; assay type: functional; design: scale not given: the % may be the effect or the level left
MEF [13] = assay: as §1, with “25” for “1.67”; assay type: functional; conditions: time hrs <=96
NIH3T3 [14] = assay: Transcriptional upregulation of Rora mRNA expression in dexamethasone-induced mouse NIH3T3 cells at 15 uM measured after 24 hrs by qPCR analysis relative to control; assay type: functional
Sarcoma-180 [15] = assay: Elongation of circadian rhythms in dexamethasone-induced mouse Sarcoma-180 cells assessed as increase in Bmal1 period length measured for 1 mins at 10 min interval up to 96 hrs by bioluminescence based Bmal1 promoter-reporter gene assay; assay type: functional, cell-based; conditions: dose 1-5 µM, time hrs <=96
NIH3T3 [16] = assay: Elongation of circadian rhythms in dexamethasone-induced mouse NIH3T3 cells assessed as increase in Bmal1 period time at 1 uM measured for 1 mins at 10 min interval up to 96 hrs by dual luciferase reporter gene assay (reference value: 25.02 +/- 0.15 hrs); assay type: functional; conditions: time hrs <=96
MEF [17] = assay: as §1, with “5” for “1.67”; assay type: functional; conditions: time hrs <=96
NIH3T3 [18] = assay: Transcriptional upregulation of […] mRNA expression in dexamethasone-induced mouse NIH3T3 cells at 15 uM measured after 24 hrs by qPCR analysis relative to control; assay type: functional
MEF [19] = assay: as §1, with “1” for “1.67”; assay type: functional; conditions: time hrs <=96
Sarcoma-180 [20] = assay: Cytotoxicity against mouse Sarcoma-180 cells assessed as reduction in cell proliferation at 5 uM measured up to 5 days by WST-8 assay; assay type: functional, cell-based; conditions: time day <=5
Sarcoma-180 [21] = assay: Transcriptional upregulation of Bmal1 mRNA expression in dexamethasone-induced mouse Sarcoma-180 cells at 5 uM measured after 24 hrs by RT-qPCR analysis relative to control; assay type: functional
[22] = Induction of Bmal1 promotor activity in dexamethasone-induced mouse NIH3T3 cells transfected with Bmal1 promotor-reporter plasmids at 5 uM measured after 24 hrs by bioluminescence assay relative to control; assay type: functional
[23] = Induction of Bmal1 promotor activity in dexamethasone-induced mouse NIH3T3 cells transfected with Bmal1 promotor-reporter plasmids at 15 uM measured after 24 hrs by bioluminescence assay relative to control; assay type: functional
[24] = target: T2, Nuclear receptor ROR-alpha (Mus musculus) (UniProt P51448); assay: Agonist activity at RORalpha in mouse NIH3T3 cells at 1 to 1000 uM incubated for 24 hrs by luminescence based assay; assay type: cell-based; conditions: dose 1-1000 µM
T2 sequence (whole entry): T1 sequence (P51448 whole entry)

SMILES: CO[C@H]1CC(=O)[C@]2(C)[C@H]3CC[C@]4(C)[C@@H]([C@H](C)[C@H]5CC(C)=C(CO)C(=O)O5)CC[C@H]4[C@@H]3C[C@H]3O[C@]32[C@H]1O
Time (MEF [1]): 24.17 h
Activity (NIH3T3 [2]): 1.75 fold change
fold change (FC) (NIH3T3 [3]): 1.2
Activity (NIH3T3 [4]): 1.43 fold change
IC50 [5]: 11.3 µM
Time (NIH3T3 [6]): 26.06 h
Activity (Sarcoma-180 [7]): Active
fold change (FC) (Sarcoma-180 [8]): 1.34
Activity (Sarcoma-180 [9]): Active
fold change (FC) (NIH3T3 [10]): 1.61
Time (Sarcoma-180 [11]): 31.7 h
Activity (Sarcoma-180 [12]; time 3 day): 59.8%
Time (MEF [13]): 26.11 h
fold change (FC) (NIH3T3 [14]): 1.68
Activity (Sarcoma-180 [15]): Dose-Dependent Effect
Time (NIH3T3 [16]): 25.01 h
Time (MEF [17]): 25.36 h
fold change (FC) (NIH3T3 [18]): 1.57
Time (MEF [19]): 22.98 h
Activity (Sarcoma-180 [20]): Active
fold change (FC) (Sarcoma-180 [21]): 2.13
fold change (FC) [22]: 1.32
fold change (FC) [23]: 1.83

Activity [24]: inactive
SMILES: CC1=C(CO)C(=O)O[C@@H]([C@@H](C)[C@H]2CC[C@H]3[C@@H]4C[C@H]5O[C@]56[C@@H](O)C=CC(=O)[C@]6(C)[C@H]4CC[C@]23C)C1
Activity (Sarcoma-180 [9]): Active
Activity (Sarcoma-180 [11]): Active
Activity (Sarcoma-180 [12]; time 3.0 day): Active

Activity ([24]; filed as agonist): Active
SMILES: CC(C)CCC[C@@H](C)[C@H]1CC[C@H]2C3=CC=C4C[C@@H](O)CC[C@]4(C)[C@H]3CC[C@]12C
